From patent publication US7192950B2, “Benzazepines and related heterocyclic derivatives which are useful as orexin receptor antagonists” (Actelion Pharmaceuticals, Ltd., priority 2000, dated 2007)

What was measured:
[1] = biological target: T1, human orexin-1 receptor (Homo sapiens, UniProt O43613); experiment: Intracellular calcium measurements (FLIPR), OX1 receptor antagonist activity; format: cell-based; details: CHO cells expressing human orexin-1 receptor; 10 nM orexin-A as agonist; fluo-3 calcium signal
T1 construct: expressed in transfected cells; host or cells: CHO cells (G418 selection)
T1 sequence (O43613 1-425): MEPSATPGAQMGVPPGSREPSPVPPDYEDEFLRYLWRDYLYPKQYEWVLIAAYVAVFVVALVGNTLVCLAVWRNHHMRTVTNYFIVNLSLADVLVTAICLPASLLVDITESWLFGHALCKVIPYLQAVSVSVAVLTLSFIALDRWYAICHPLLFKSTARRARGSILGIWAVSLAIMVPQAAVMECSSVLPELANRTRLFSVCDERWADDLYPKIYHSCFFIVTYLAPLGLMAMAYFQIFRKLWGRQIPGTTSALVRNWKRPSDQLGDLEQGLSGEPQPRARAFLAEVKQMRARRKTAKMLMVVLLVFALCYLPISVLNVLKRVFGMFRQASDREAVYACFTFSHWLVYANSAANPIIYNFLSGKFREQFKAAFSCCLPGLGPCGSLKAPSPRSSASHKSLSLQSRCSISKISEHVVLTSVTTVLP
Protocol: (§1) The OX1 and OX2 receptor antagonist activities of the compounds of general formula (I) were determined in accordance with the following experimental method.
(§2) Intracellular Calcium Measurements
(§3) Chinese hamster ovary (CHO) cells expressing the human orexin-1 receptor and the human orexin-2 receptor, respectively, were grown in culture medium (Ham F-12 with L Glutamine) containing 300 μg/ml G418, 100 U/ml penicillin, 100 μg/ml streptomycin and 10% inactivated foetal calf serum (FCS).
(§4) The cells were seeded at 80'000 cells/well into 96-well black clear bottom sterile plates (Costar) which had been precoated with 1% gelatine in Hanks' Balanced Salt Solution (HBSS). All reagents were from Gibco BRL.
(§5) The seeded plates were incubated overnight at 37° C. in 5% CO2.
(§6) Human orexin-A as an agonist was prepared as 1 mM stock solution in methanol:water (1:1), diluted in HBSS containing 0.1% BSA and 2 mM HEPES for use in the assay at a final concentration of 10 nM.
(§7) Antagonists were prepared as 10 mM stock solution in DMSO, then diluted in 96-well plates, first in DMSO, then in HBSS containing 0.1% bovine serum albumin (BSA) and 2 mM HEPES.
(§8) On the day of the assay, 100 μl of loading medium (HBSS containing 1% FCS, 2 mM HEPES, 5 mM probenecid (Sigma) and 3 μM of the fluorescent calcium indicator fluo-3 AM (1 mM stock solution in DMSO with 10% pluronic acid Molecular Probes)) was added to each well.
(§9) The 96-well plates were incubated for 60 min at 37° C. in 5% CO2. The loading solution was then aspirated and cells were washed 3 times with 200 μl HBSS containing 2.5 mM probenecid, 0.1% BSA, 2 mM HEPES. 100 μl of that same buffer was left in each well.
(§10) Within the Fluorescent Imaging Plate Reader (FLIPR, Molecular Devices), antagonists were added to the plate in a volume of 50 μl, incubated for 20 min and finally 100 μl of agonist was added. Fluorescence was measured for each well at 1 second intervals, and the height of each fluorescence peak was compared to the height of the fluorescence peak induced by 10 nM orexin-A with buffer in place of antagonist. For each antagonist; IC50 values (the concentration of compound needed to inhibit 50% of the agonistic response) were determined.

[2] = biological target: T2, human orexin-2 receptor (Homo sapiens, UniProt O43614); experiment: Intracellular calcium measurements (FLIPR), OX2 receptor antagonist activity; format: cell-based; details: CHO cells expressing human orexin-2 receptor; 10 nM orexin-A as agonist; fluo-3 calcium signal
T2 construct: expressed in transfected cells; host or cells: CHO cells (G418 selection)
T2 sequence (O43614 1-444): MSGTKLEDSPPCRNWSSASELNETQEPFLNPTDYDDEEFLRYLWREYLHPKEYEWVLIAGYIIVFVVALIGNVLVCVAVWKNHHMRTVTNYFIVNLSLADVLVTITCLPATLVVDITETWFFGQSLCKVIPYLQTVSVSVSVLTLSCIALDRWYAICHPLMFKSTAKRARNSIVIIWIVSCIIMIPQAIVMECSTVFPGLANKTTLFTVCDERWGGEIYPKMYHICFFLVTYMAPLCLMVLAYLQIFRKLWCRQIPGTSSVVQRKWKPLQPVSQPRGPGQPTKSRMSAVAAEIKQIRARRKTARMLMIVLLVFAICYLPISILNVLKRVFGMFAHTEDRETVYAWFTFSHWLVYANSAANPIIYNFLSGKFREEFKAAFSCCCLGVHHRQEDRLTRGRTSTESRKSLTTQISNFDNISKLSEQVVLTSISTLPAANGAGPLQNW
Protocol: as §1, §2, §3, §4, §5, §6, §7, §8, §9, §10

| Compound | IC50 [1] | IC50 [2] |
| --- | --- | --- |
| COc1ccc(CC2c3cc(OC)c(OC)cc3OCCN2CC(=O)NC2CCc3ccccc32)cc1OC (racemic) [Example 5, 2-[5-(3,4-Dimethoxy-benzyl)-7,8-dimethoxy-2,3-dihydro-5H-benzo[f][1,4]oxazepin-4-yl]-N-indan-1-yl-acetamide] | 64 nM | 7900 nM |
| COc1ccc(CC2c3cc(OC)c(OC)cc3CCCN2C(C(=O)NCc2ccco2)c2ccccc2)cc1OC (centres unmarked) [Example 25, 2-[1-(3,4-Dimethoxy-benzyl)-7,8-dimethoxy-1,3,4,5-tetrahydro-benzo[c]azepin-2-yl]-N-furan-2-ylmethyl-2-phenyl-acetamide] | 41 nM | 241 nM |
| COc1ccc(CC2c3cc(OC(C)C)c(OC)cc3CCCN2CC(=O)NC2CCc3ccccc32)cc1OC (centres unmarked) [Example 68, 2-[1-(3,4-Dimethoxy-benzyl)-8-isopropoxy-7-methoxy-1,3,4,5-tetrahydro-benzo[c]azepin-2-yl]-N-indan-1-yl-acetamide] | 12 nM | 174 nM |
| COc1ccc(CC2c3cc(OC)c(OC)cc3CCCN2C(C(=O)NCc2ccc3c(c2)OCO3)c2ccccc2)cc1OC (centres unmarked) [Example 23, N-Benzo[1,3]dioxol-5-ylmethyl-2-[1-(3,4-dimethoxy-benzyl)-7,8-dimethoxy-1,3,4,5-tetrahydro-benzo[c]azepin-2-yl]-2-phenyl-acetamide] | 21 nM | 189 nM |
| COc1ccc(CC2c3cc(OC)c(OC)cc3CCCN2CC(=O)NC2Cc3ccccc3C2)cc1OC (centres unmarked) [Example 3, 2-[1-(3,4-Dimethoxy-benzyl)-7,8-dimethoxy-1,3,4,5-tetrahydro-benzo[c]azepin-2-yl]-N-indan-2-yl-acetamide] | 99 nM | > 10000 nM |
| COc1ccc(CC2c3cc(OC)c(OC)cc3CCCN2CC(=O)NC2CCc3ccccc32)cc1OC (centres unmarked) [Example 9, 2-[1-(3,4-Dimethoxy-benzyl)-7,8-dimethoxy-1,3,4,5-tetrahydro-benzo[c]azepin-2-yl]-N-indan-1-yl-acetamide] | 23 nM | 1240 nM |
| COc1ccc(CC2c3cc(OC)c(OC)cc3CCCN2C(C(=O)NCc2nc3ccccc3[nH]2)c2ccccc2)cc1OC (centres unmarked) [Example 35, N-(1H-Benzoimidazol-2-ylmethyl)-2-[1-(3,4-dimethoxy-benzyl)-7,8-dimethoxy-1,3,4,5-tetrahydro-benzo[c]azepin-2-yl]-2-phenyl-acetamide] | 32 nM | 7040 nM |
| COc1ccc(CC2c3cc(OC)c(OC)cc3CCCN2C(C(=O)NC2Cc3ccccc3C2)c2ccccc2)cc1OC (centres unmarked) [Example 20, 2-[1-(3,4-Dimethoxy-benzyl)-7,8-dimethoxy-1,3,4,5-tetrahydro-benzo[c]azepin-2-yl]-N-indan-2-yl-2-phenyl-acetamide] | 23 nM | 231 nM |
| COC(=O)CCNC(=O)C(c1ccccc1)N1CCCc2cc(OC)c(OC)cc2C1Cc1ccc(OC)c(OC)c1 (centres unmarked) [Example 34, 3-{2-[1-(3,4-Dimethoxy-benzyl)-7,8-dimethoxy-1,3,4,5-tetrahydro-benzo[c]azepin-2-yl]-2-phenyl-acetylamino}-propionic acid methyl ester] | 41 nM | 9190 nM |
| COc1ccc(CC2c3cc(OCC(F)F)c(OC)cc3CCCN2CC(=O)NC2CCc3ccccc32)cc1OC (centres unmarked) [Example 69, 2-[8-(2,2-Difluoro-ethoxy)-1-(3,4-dimethoxy-benzyl)-7-methoxy-1,3,4,5-tetrahydro-benzo[c]azepin-2-yl]-N-indan-1-yl-acetamide] | 9 nM | 349 nM |
